Measured values from a melting point compilation (Tetko et al.; mined from patent text by program, amines drawn as free bases though some values may be those of a salt).

Row | Compound | melting point [°C]
1 | CCC(CC)Oc1cc(C)nc(Oc2c(C)cc(C)cc2C)c1C | 72.5 to 74
2 | CCOC(=O)c1cnc2c(O)cccc2c1 | 118
3 | COc1ccc2[nH]c(C)c(-c3nc(OC)cc(OC)n3)c2c1 | 182 to 184
4 | CCOC(=O)NC(=S)Nc1ccsc1C(=O)OC | 165 to 167
5 | NC(=O)C1=CC=CNC=C1 | 167 to 171
6 | Cc1ccc(C(Cl)=NO)cc1 | 69 to 71
7 | CC(C)(Cl)C(CCNC(=O)C(F)(F)F)N=O (centres undefined) | 91 to 93
8 | Clc1cc2c(nn1)CCCCCCCCCC2 | 126 to 128
9 | CSCc1ccc(-c2cccnc2)o1 | 67 to 68
10 | NCc1cc(Cl)ccc1O | 160 to 162
11 | C[C@H]1C(=O)C[C@@H]2C[C@H]1OO[C@]2(C)/C=C/C(=O)c1ccc(Cl)cc1 | 127
12 | Brc1ccc2c(c1)C1(c3ccccc3-c3ccccc31)c1cc(Br)ccc1-2 | 340 to 341
13 | COc1ccc(C2CCOCC2)cc1NC(=S)c1ncc[nH]1 | 189 to 190
14 | Cc1nn(C)c2c(Nc3ccc(S(C)(=O)=O)cc3)nc(-c3ccc(F)cc3)nc12 | 216 to 218
15 | CCCN1C(=O)N2C[C@@H](Cc3ccccc3)N=C2c2[nH]c([C@H]3CC[C@H](CN)CC3)nc21 | 70 to 71
16 | CCCCCCCNC(=O)c1cnc2cccc(C)n2c1=O | 118 to 120
17 | CCOc1ccc2ccc(F)c(F)c2c1F | 96.5 to 98.5
18 | CCCCN1CC[C@@H](CNC(=O)c2cc(Cl)c(N)c3c2OCCO3)[C@H](O)C1 (relative stereo) | 122
19 | CN(CSC(C)(C)C)C(=O)Nc1cccc(C(F)(F)F)c1 | 96 to 99
20 | C1CC1Nc1nc(NC2CC2)nc(NC2CC2)n1 | 75 to 77
21 | COc1cc2ncc(C#N)c(Nc3cccc(NC(C)=O)c3)c2cc1OC | 147 to 150
22 | CC1=C(C)C(=O)C(CCCOc2ccc(C=C3SC(=O)NC3=O)cc2)=C(C)C1=O | 230 to 232
23 | COc1cc(Oc2nn(C)c(C(F)(F)F)c2Cl)ccc1[N+](=O)[O-] | 71 to 73.5
24 | CCn1cc(C(=O)O)c(=O)c2ccc(I)cc21 | 237 to 238

Row | Compound | melting point [°C]
25 | Cc1c(NC(=O)c2ccc(OCC3CCOC3)cc2)ccc2cc(CNCC3CCOCC3)cnc12 (centres undefined) | 122 to 123
26 | CCOC(=O)CC1CCC2C3CC=C4C(C)(C)C(O)CCC4(C)C3CCC12C (centres undefined) | 127 to 129
27 | CCOC(=O)c1cnc2n(c1=O)C(C)CCC2C(=S)NC (centres undefined) | 199 to 200
28 | CCCCCCCCCCOc1ccc(Cc2cccc(C(=O)O)c2)cc1CCC(=O)O | 146 to 148
29 | Nc1cc2c(cc1[N+](=O)[O-])OCC2 | 152
30 | CC(C)(C)c1cc(C=Cc2n[nH]c(=S)o2)cc(C(C)(C)C)c1O | 210
31 | COCCOc1cc([N+](=O)[O-])c2[nH]c(C(=O)O)cc2c1 | 192 to 193
32 | CN(C)C=Nc1c(Cl)cc(N=Cc2ccc(N(C)C)c(Br)c2)cc1Cl | 140 to 141
33 | N#Cc1cnc2sc(Br)cc2c1Cl | 158 to 166
34 | C[C@H]1CCCC(C)(C)[C@@H]1[C@H](O)c1ccc(C#N)c(C(F)(F)F)c1 | 118 to 119
35 | CS(=O)(=O)c1cc(Br)nc(Br)c1 | 137 to 138
36 | CCCNc1nc(N)c2ncn(C3C=CCCC3)c2n1 (centres undefined) | 73 to 80
37 | CCNc1cc([N+](=O)[O-])ccc1OCCOC | 83 to 87
38 | COC(=O)Cc1ccnc(NC=O)n1 | 103 to 107
39 | O=C(Nc1ccc2c(c1)OCO2)c1ccc([N+](=O)[O-])cc1 | 231 to 234
40 | CCCn1c2cc(OC)ccc2c2oc(C(=O)Cl)cc21 | 195 to 196
41 | Brc1nc(-c2cccnc2)[nH]c1Br | 226 to 227
42 | CC(C)COc1ccc(NC(=O)c2cnn(-c3ccc(F)cc3)c2O)cc1C#N | 207 to 208
43 | COc1ccc(OC)c2c1C[C@@H](O)[C@@H](N)C2 (relative stereo) | 193 to 196
44 | CCCCOc1nc(=O)n(C(=O)NC)s1 | 108
45 | O=Cc1cccc(CF)n1 | 60
46 | COc1ccc(CC(=O)c2cc(OC)c(OC)cc2C)cc1OC | 115
47 | COc1cc(OC)nc(NC(=O)N=NS(=O)(=O)C2SCC(=O)N2C)n1 (centres undefined) | 200 to 201
48 | N#Cc1c(N)nc2ccc([N+](=O)[O-])cc2c1O | > 360

Row | Compound | melting point [°C]
49 | Cc1cc(OCc2coc(C=Cc3ccc(SC(F)(F)F)cc3)n2)ccc1COCCn1ccnn1 | 102
50 | CC(C)Cn1c(=O)n(C)c(=O)c2c(OCCCO)c(Cc3cccnc3)sc21 | 111 to 112
51 | COc1ccc(C(O)CNCc2cccc([N+](=O)[O-])c2)cc1OC (centres undefined) | 105 to 107
52 | CC(C)(C=C(Cl)Cl)C(=O)Nc1ccc(Cl)cc1 | 131 to 134
53 | CCCCc1nc2cccc(C(=O)OCc3ccncc3)c2n1Cc1ccc(-c2ccccc2-c2nnn[nH]2)cc1 | 179 to 180
54 | CN1CC2CCCC(C1)C2=NO | 111 to 112
55 | CN1CC(=Cc2c(F)c(F)c(N=[N+]=[N-])c(F)c2F)C(=O)C(=Cc2c(F)c(F)c(N=[N+]=[N-])c(F)c2F)C1 | 153
56 | CC(=O)Oc1ccc(C(C)(c2ccc(OC(C)=O)cc2)c2ccc(OC(C)=O)cc2)cc1 | 169
57 | CCOC(=O)/C(=N\O)N1N=C(N)C(Cc2ccccc2)C1=O (centres undefined) | 102 to 108
58 | CCCc1c(C(=O)C(C)C)c2ccc(C(=O)OC)cc2n1Cc1ccc(Br)cc1F | 110 to 112
59 | O=S(=O)(c1ccccc1)C(F)(F)C(F)Cl (centres undefined) | 38 to 39
60 | CCn1c(N(C)C)nc2cc(C(F)(F)F)c(Cl)c(N)c21 | 99 to 100
61 | CC(C)S(=O)(=O)ON=C(C#N)c1cccs1 | 80 to 82
62 | CCOc1c(Nc2ccc(C#N)cc2)c(=O)c1=O | 218 to 222
63 | CCCn1c(=S)[nH]c(=S)c2[nH]c(C3CC3)nc21 | > 245
64 | CCCCCCCCCCCCCCCCCCSCCCCCC(N)=O | 105
65 | O=[N+]([O-])c1c(F)cc(Br)c(OCCCl)c1Br | 56
66 | Cn1c(=O)sc2cc(N3C[C@H](CN)OC3=O)ccc21 | 217
67 | OCCCc1ccc(Sc2ccc(CCCO)cc2C(F)(F)F)c(C(F)(F)F)c1 | 96 to 102
68 | COC(=O)c1ccc(O)c(C(=O)CC(=O)c2cccnc2)c1 | 200 to 202
69 | CCN(C=CC(=O)c1cccnc1)CC | 193 to 195
70 | COc1ccc(C2Cc3cc(C(F)(F)F)ccc3NC(=O)C2CO)cc1 (centres undefined) | 190
71 | CCCNC(=O)NS(=O)(=O)c1cc2c(cc1OC)OCCC2CNC(=O)c1cc(Cl)ccc1OC (centres undefined) | 159 to 160
72 | COc1ncc(Cl)cc1C1OC(=O)NC1=O (centres undefined) | 199 to 204

Continued, values first:

Row | melting point [°C] | Compound
73 | 134 to 136 | C[Si](C)(C)C#Cc1ccc2c(C(=O)Nc3cccc(C(F)(F)F)c3)cccc2c1
74 | 115 to 118 | COc1ccc(-c2nc(SCC(C)=O)[nH]c2-c2ccc(OC)cc2)cc1
75 | 222 | CC(=O)c1c2sc3ccccc3nc-2ccc1=O
76 | 138 | CC(C)c1nccc2c(C(C)C(=O)O)cccc12 (centres undefined)
77 | 199 to 200 | CS(=O)(=O)Nc1cc2occ(C=NO)c(=O)c2cc1Oc1ccccc1
78 | 102 | O=C1CCC(c2ccccc2)(c2ccccc2)C2CN(C(Cc3ccccc3)=NCc3cccnc3)CC12 (centres undefined)
79 | 165 to 166 | CC(C)(C)OC(=O)N1CCN(c2cccc3c(Sc4ccccc4)c[nH]c23)CC1
80 | 106 | CCc1noc(-c2cn(-c3ccccc3OCc3ccccc3)cn2)n1
81 | 145 to 147 | O=C1c2ccccc2OC(CCCl)CN1Cc1ccccc1 (centres undefined)
82 | 230 to 232 | CC(=O)NCC1CN(c2ccc(N3CCN(c4nnc(C(N)=O)s4)C(F)C3)cc2)C(=O)O1 (centres undefined)
83 | 114 to 116 | N#CC1Sc2ccccc2-c2ccccc21 (centres undefined)
84 | 112 to 113 | CN1CCCc2cccc(CS(=O)c3nc4ccccc4[nH]3)c21 (centres undefined)
85 | 229 to 230 | Cc1c(NC(=O)CC(C)(C)C)c(C)c2c(-c3ccc(C(C)C)cc3)coc2c1C
86 | 173 to 175 | CCC(C)c1ccc(-n2c(-c3ccc(OCCO)cc3)nc3ccccc3c2=O)cc1 (centres undefined)
87 | > 260 | Cc1ccc(-c2nc3c(o2)C(=O)c2ccccc2C3=O)cc1
88 | 49.6 | CCCCN=C(c1cc(Cl)ccc1O)c1ccccc1Cl

Row | melting point [°C] | Compound
89 | 97 to 99 | O=[N+]([O-])c1ccccc1C=[N+]([O-])c1cccc(CO)c1
90 | 277 to 278 | COc1ccc2c(Cl)cc3nc(C(=O)O)cn3c2c1
91 | 196 to 197 | CN(C(=O)c1cccc2ccccc12)[C@H](Cc1ccc(C(F)(F)F)cc1)[C@@H](O)c1ccc(F)cc1 (racemic)
92 | 210 to 212 | CCN(CC)CC1CCCCN1CC(=O)N1c2ccccc2C(=O)Nc2cccnc21 (centres undefined)
93 | 86 to 88 | Cc1ccc(CN2CC=C(/C=C/c3cccc(Cl)c3)CC2)cc1
94 | 56 to 58 | CCOC(=O)C(Cc1ccc(OCCN2CCC(C)(C)c3cc(C(=O)c4ccccc4)ccc32)cc1)OCC(F)(F)F (centres undefined)
95 | 243 to 245 | N#Cc1cccc(S(=O)(=O)N2CCn3c(c(C(N)=O)c(Cl)c3-c3ccccc3)C2)c1
96 | 242 to 245 | O=C1NC(=O)C(=Cc2ccc(OCCNc3nc4ccccc4o3)cc2)S1
97 | 80 to 82 | CN(C)CCNC(=O)c1cc(Oc2ccc3c(C(=O)Nc4cccc(C(F)(F)F)c4)cccc3c2)ccn1
98 | 148 to 151 | CC(=O)NC[C@H]1CN(c2ccc(C3=CCN(C=O)CC3)c(F)c2)C(=O)O1
99 | 271 to 272 | Cc1c(C)c2c(c(C)c1NC(=O)c1ccc(F)cc1)C(c1ccc(C(C)C)cc1)C1(CCN(C)CC1)O2 (centres undefined)
100 | 196 to 198 | CN1CCN(c2cccc3c2C[C@H](NC(=O)c2ccc(N4CCCCC4)cc2)CC3)CC1
101 | 109 to 114 | O=C(C1CC1)N1CCN(C(=O)c2cc(C(F)(F)F)cc(C(F)(F)F)c2)[C@H](Cc2c[nH]c3ccccc23)C1
102 | 100 to 102 | O=C(O)Cc1cccc(Oc2ccc(Cl)cc2)c1O
103 | 208 to 210 | Cc1ccc2c(c1)C=Cc1cc(C)ccc1C2c1cn(-c2ccnc(N3C[C@H](O)C[C@H]3C(=O)O)n2)c(=O)[nH]c1=O
104 | 105 to 106 | O=C(c1ccccc1)N1N=CCC1c1ccccc1 (centres undefined)
